ChEMBL document CHEMBL1127993, “4-[5-(2,3-dihydroxyphenyl)pentyloxy]-2-hydroxy-3-propylbenzoic acid (Ro 24-0553): an orally active 5-lipoxygenase inhibitor with antiinflammatory activity” (Bioorg Med Chem Lett, 1994)
Calls of active or inactive are those of the source. The calls are words filed in the database; no cut-off is given here.

Assays:
[1] = target: T1, Polyunsaturated fatty acid 5-lipoxygenase (Rattus norvegicus, UniProt P12527); test: Inhibition of 5-lipoxygenase from rat basophilic leukemia(RBL-1) cells; type: cell-based
T1 sequence (P12527 whole entry): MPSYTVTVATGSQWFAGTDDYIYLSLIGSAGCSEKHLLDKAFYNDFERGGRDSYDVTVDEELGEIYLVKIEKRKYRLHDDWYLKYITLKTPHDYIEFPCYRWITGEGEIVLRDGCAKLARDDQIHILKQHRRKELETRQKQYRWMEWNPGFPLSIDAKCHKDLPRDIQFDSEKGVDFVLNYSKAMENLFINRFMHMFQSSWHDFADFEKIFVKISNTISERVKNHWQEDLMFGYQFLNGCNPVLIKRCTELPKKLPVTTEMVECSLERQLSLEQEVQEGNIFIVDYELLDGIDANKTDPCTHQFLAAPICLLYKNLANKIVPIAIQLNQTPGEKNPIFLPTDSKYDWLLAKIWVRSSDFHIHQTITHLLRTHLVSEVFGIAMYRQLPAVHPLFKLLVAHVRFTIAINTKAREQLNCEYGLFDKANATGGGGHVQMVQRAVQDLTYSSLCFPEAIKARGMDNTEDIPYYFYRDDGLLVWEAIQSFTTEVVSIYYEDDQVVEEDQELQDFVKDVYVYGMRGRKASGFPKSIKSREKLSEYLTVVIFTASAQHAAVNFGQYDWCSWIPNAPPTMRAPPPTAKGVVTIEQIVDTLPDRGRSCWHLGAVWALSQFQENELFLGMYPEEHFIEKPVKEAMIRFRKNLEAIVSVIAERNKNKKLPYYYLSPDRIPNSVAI

[2] = organism: Rattus norvegicus; test: Inhibitory activity against peroxidation of rat cardiac membrane liposomes at 1 uM concentration; type: functional; details: Microsome
[3] = tested on: Rattus norvegicus; test: In vivo inhibitory activity against acetic acid-induced colitis of rat at 10 mg/kg upon peroral administration; type: functional; details: route oral
[4] = organism: Rattus norvegicus; test: Inhibitory activity against peroxidation of rat cardiac membrane liposomes; type: functional
[5] = organism: Rattus norvegicus; test: Inhibition of LTB4 biosynthesis in ionophore-stimulated rat peritoneal macrophages; type: functional
[6] = organism: Mus musculus; test: Myeloperoxidase activity was determined as a measure of neutrophil infiltration at the 0.4 mg dose in the TPA treated mice; type: functional
[7] = tested on: Rattus norvegicus; test: Percent reduction of neutrophil accumulatiom with an minimum effective dose of 100 ug/kg when administered orally twice daily for two days before induction of acetic acid-induced colitis in the rat; type: functional
[8] = tested on: Rattus norvegicus; test: Reduction of necrosis at 1 mg/kg in acetic acid-induced colitis of the rat; type: functional
[9] = organism: Homo sapiens; test: Inhibition of LTB4 biosynthesis in human neutrophils
[10] = tested on: Rattus norvegicus; test: Reduction of erythema at 1 mg/kg in acetic acid-induced colitis of the rat; type: functional
[11] = tested on: Mus musculus; test: Inhibition of the TPA-induced edema in mouse ear inflammation test at a topical dose of 0.4 mg; type: functional
[12] = organism: Mus musculus; test: Myeloperoxidase activity was determined as a measure of neutrophil infiltration at a 0.1 mg dose in the AA treated mice; type: functional
[13] = organism: Rattus norvegicus; test: Inhibition of PGE-2 biosynthesis in ionophore stimulated rat peritoneal macrophages; type: functional
[14] = tested on: Rattus norvegicus; test: Percent reduction of neutrophil accumulatiom with an minimum effective dose of 1 mg/kg when administered orally twice daily for two days before induction of acetic acid-induced colitis in the rat; type: functional; details: route oral
[15] = tested on: Rattus norvegicus; test: In vivo inhibitory activity against acetic acid-induced colitis of rat at 1 mg/kg upon peroral administration; type: functional; details: route oral
[16] = tested on: Mus musculus; test: Inhibition of the AA-induced edema in mouse ear inflammation test at 1 mg; type: functional
[17] = tested on: Mononuclear cell line; test: In vitro inhibitory activity against interleukin-1-beta biosynthesis by isolated human mononuclear cells at 10 uM; type: functional
[18] = tested on: Rattus norvegicus; test: Inhibition of neutrophil infiltration at 100 mg/kg in rats; type: functional
[19] = organism: Homo sapiens; test: Inhibitory activity against interleukin-1 production by LPS-stimulated human monocytes; IC50 range=4-8 uM; type: functional
[20] = tested on: Rattus norvegicus; test: Inhibitory activity in rat colitis model at an oral dose of 10 mg/kg; IA means inactive; type: functional, organism-based; set-up: dose 10 mg/kg

Row | Compound | IC50 [1] | inhibition [2] | inhibition in vivo at 10 mg/kg [3] | IC50 [4] | further results
1 | O=C(O)c1ccc(OCCCCCCc2cccc(O)c2O)cc1 | 200 nM | 9% | 89% |  | 
2 | CCCc1c(OCCc2cccc(O)c2O)ccc(C(=O)O)c1O | 250 nM | 17% |  |  | 
3 | CCCc1c(OCCCCCCc2cccc(O)c2O)ccc(C(=O)O)c1O |  |  | 89% | 300 nM | 
4 | CCCc1c(OCCCCc2cccc(O)c2O)ccc(C(=O)O)c1O |  |  | 73% | 500 nM | 
5 | CCCc1c(OCCCCCCCCc2cccc(O)c2O)ccc(C(=O)O)c1O | 90 nM |  | 35% | 300 nM | 
6 | CCCc1c(OCCCc2cccc(O)c2O)ccc(C(=O)O)c1O | 170 nM | 35% | 54% |  | 
7 | CCCc1cc(C(=O)O)ccc1OCCCCCCc1cccc(O)c1O |  |  |  | 680 nM | 
8 | CCCc1c(OCCCCCc2cccc(O)c2O)ccc(C(=O)O)c1O |  |  |  |  | IC50 [5]: 600 nM; Inhibition [6]: 88%; Reduction [7]: 38%; Reduction [8]: 77%; IC50 [9]: 1000 nM; Reduction [10]: 55%; Inhibition [11]: 26%; Inhibition [12]: 86%; IC50 [13]: 35000 nM; Reduction [14]: 88%; inhibition in vivo at 1 mg/kg [15]: 88%; Inhibition [16]: 47%; inhibition at 10 µM [17]: 40%
9 | CC(Cc1ccc(O)c(O)c1)C(C)Cc1ccc(O)c(O)c1 (configuration not stated) [NORDIHYDROGUAIARETIC ACID] |  |  |  | 100 nM | inhibition in vivo at 100 mg/kg [18]: 70%; IC50 [19]: 8000 nM; inhibition [20]: inactive
10 | O=C(O)c1ccc(OCCCCCCc2cccc(O)c2O)cc1O | 300 nM | 33% |  |  | inhibition in vivo at 1 mg/kg [15]: 95%
11 | CCCc1c(OCCCCCCCCCCc2cccc(O)c2O)ccc(C(=O)O)c1O |  |  |  | 400 nM | 
